What was measured:
Assay type in all cases: functional
HL-60(TB) = assay: Growth inhibition of human HL-60(TB) cells at 10^-5 M incubated for 48 hrs by sulforhodamine B assay; conditions: HL-60, 48 h, read-out: GI
MOLT-4 = assay: Growth inhibition of human MOLT4 cells at 10^-5 M incubated for 48 hrs by sulforhodamine B assay; conditions: MOLT-4, 48 h, read-out: GI
SR = assay: Growth inhibition of human SR cells at 10^-5 M incubated for 48 hrs by sulforhodamine B assay; conditions: read-out: GI
A549 = assay: Growth inhibition of human A549/ATCC cells at 10^-5 M incubated for 48 hrs by sulforhodamine B assay; conditions: A549, 48 h, read-out: GI
EKVX = assay: Growth inhibition of human EKVX cells at 10^-5 M incubated for 48 hrs by sulforhodamine B assay; conditions: read-out: GI
HOP-62 = assay: Growth inhibition of human HOP62 cells at 10^-5 M incubated for 48 hrs by sulforhodamine B assay; conditions: HOP-62, 48 h, read-out: GI
HOP-92 = assay: Growth inhibition of human HOP92 cells at 10^-5 M incubated for 48 hrs by sulforhodamine B assay; conditions: HOP-92, 48 h, read-out: GI
NCI-H226 = assay: Growth inhibition of human NCI-H226 cells at 10^-5 M incubated for 48 hrs by sulforhodamine B assay; conditions: NCI-H226, 48 h, read-out: GI
NCI-H460 = assay: Growth inhibition of human NCI-H460 cells at 10^-5 M incubated for 48 hrs by sulforhodamine B assay; conditions: NCI-H460, 48 h, read-out: GI
COLO 205 = assay: Growth inhibition of human COLO205 cells at 10^-5 M incubated for 48 hrs by sulforhodamine B assay; conditions: COLO 205, 48 h, read-out: GI
HCC 2998 = assay: Growth inhibition of human HCC2998 cells at 10^-5 M incubated for 48 hrs by sulforhodamine B assay; conditions: HCC 2998, 48 h, read-out: GI
HCT-116 = assay: Growth inhibition of human HCT116 cells at 10^-5 M incubated for 48 hrs by sulforhodamine B assay; conditions: HCT-116, 48 h, read-out: GI
HCT-15 = assay: Growth inhibition of human HCT15 cells at 10^-5 M incubated for 48 hrs by sulforhodamine B assay; conditions: HCT-15, 48 h, read-out: GI
KM12 = assay: Growth inhibition of human KM12 cells at 10^-5 M incubated for 48 hrs by sulforhodamine B assay; conditions: KM12, 48 h, read-out: GI
SW-620 = assay: Growth inhibition of human SW620 cells at 10^-5 M incubated for 48 hrs by sulforhodamine B assay; conditions: SW-620, 48 h, read-out: GI
SF-295 = assay: Growth inhibition of human SF295 cells at 10^-5 M incubated for 48 hrs by sulforhodamine B assay; conditions: SF-295, 48 h, read-out: GI
SF-539 = assay: Growth inhibition of human SF539 cells at 10^-5 M incubated for 48 hrs by sulforhodamine B assay; conditions: SF-539, 48 h, read-out: GI
SNB-75 = assay: Growth inhibition of human SNB75 cells at 10^-5 M incubated for 48 hrs by sulforhodamine B assay; conditions: SNB-75, 48 h, read-out: GI
U-251 = assay: Growth inhibition of human U251 cells at 10^-5 M incubated for 48 hrs by sulforhodamine B assay; conditions: U-251, 48 h, read-out: GI
LOX IMVI = assay: Growth inhibition of human LOXIMVI cells at 10^-5 M incubated for 48 hrs by sulforhodamine B assay; conditions: read-out: GI
M14 = assay: Growth inhibition of human M14 cells at 10^-5 M incubated for 48 hrs by sulforhodamine B assay; conditions: M14, 48 h, read-out: GI
MDA-MB-435 = assay: Growth inhibition of human MDA-MB-435 cells at 10^-5 M incubated for 48 hrs by sulforhodamine B assay; conditions: MDA-MB-435, 48 h, read-out: GI
SK-MEL-28 = assay: Growth inhibition of human SK-MEL-28 cells at 10^-5 M incubated for 48 hrs by sulforhodamine B assay; conditions: SK-MEL-28, 48 h, read-out: GI
SK-MEL-5 = assay: Growth inhibition of human SK-MEL-5 cells at 10^-5 M incubated for 48 hrs by sulforhodamine B assay; conditions: SK-MEL-5, 48 h, read-out: GI
UACC-257 = assay: Growth inhibition of human UACC257 cells at 10^-5 M incubated for 48 hrs by sulforhodamine B assay; conditions: UACC-257, 48 h, read-out: GI
UACC-62 = assay: Growth inhibition of human UACC62 cells at 10^-5 M incubated for 48 hrs by sulforhodamine B assay; conditions: UACC-62, 48 h, read-out: GI
IGROV-1 = assay: Growth inhibition of human IGROV1 cells at 10^-5 M incubated for 48 hrs by sulforhodamine B assay; conditions: IGROV-1, 48 h, read-out: GI
OVCAR-5 = assay: Growth inhibition of human OVCAR5 cells at 10^-5 M incubated for 48 hrs by sulforhodamine B assay; conditions: OVCAR-5, 48 h, read-out: GI
OVCAR-8 = assay: Growth inhibition of human OVCAR8 cells at 10^-5 M incubated for 48 hrs by sulforhodamine B assay; conditions: OVCAR-8, 48 h, read-out: GI
SK-OV-3 = assay: Growth inhibition of human SKOV3 cells at 10^-5 M incubated for 48 hrs by sulforhodamine B assay; conditions: SK-OV-3, 48 h, read-out: GI
786-0 = assay: Growth inhibition of human 786-0 cells at 10^-5 M incubated for 48 hrs by sulforhodamine B assay; conditions: 786-0, 48 h, read-out: GI
CAKI-1 = assay: Growth inhibition of human Caki1 cells at 10^-5 M incubated for 48 hrs by sulforhodamine B assay; conditions: CAKI-1, 48 h, read-out: GI
RXF 393 = assay: Growth inhibition of human RXF393 cells at 10^-5 M incubated for 48 hrs by sulforhodamine B assay; conditions: RXF 393, 48 h, read-out: GI
TK-10 = assay: Growth inhibition of human TK10 cells at 10^-5 M incubated for 48 hrs by sulforhodamine B assay; conditions: TK-10, 48 h, read-out: GI
DU-145 = assay: Growth inhibition of human DU145 cells at 10^-5 M incubated for 48 hrs by sulforhodamine B assay; conditions: DU-145, 48 h, read-out: GI
MDA-MB-231 = assay: Growth inhibition of human MDA-MB-231 cells at 10^-5 M incubated for 48 hrs by sulforhodamine B assay; conditions: MDA-MB-231, 48 h, read-out: GI
Hs-578T = assay: Growth inhibition of human Hs 578T cells at 10^-5 M incubated for 48 hrs by sulforhodamine B assay; conditions: read-out: GI
T47D = assay: Growth inhibition of human T47D cells at 10^-5 M incubated for 48 hrs by sulforhodamine B assay; conditions: read-out: GI

Structure (SMILES) | inhibition of growth at 10 µM (HL-60(TB)) [%] | inhibition of growth at 10 µM (MOLT-4) [%] | inhibition of growth at 10 µM (SR) [%] | inhibition of growth at 10 µM (A549) [%] | inhibition of growth at 10 µM (EKVX) [%] | inhibition of growth at 10 µM (HOP-62) [%] | inhibition of growth at 10 µM (HOP-92) [%] | inhibition of growth at 10 µM (NCI-H226) [%] | inhibition of growth at 10 µM (NCI-H460) [%] | inhibition of growth at 10 µM (COLO 205) [%] | inhibition of growth at 10 µM (HCC 2998) [%] | inhibition of growth at 10 µM (HCT-116) [%] | inhibition of growth at 10 µM (HCT-15) [%] | inhibition of growth at 10 µM (KM12) [%] | inhibition of growth at 10 µM (SW-620) [%] | inhibition of growth at 10 µM (SF-295) [%] | inhibition of growth at 10 µM (SF-539) [%] | inhibition of growth at 10 µM (SNB-75) [%] | inhibition of growth at 10 µM (U-251) [%] | inhibition of growth at 10 µM (LOX IMVI) [%] | also measured
O=C1Nc2c(sc3ccc(Cl)cc23)C(c2cccc(Br)c2)N1 (configuration not stated) | 7.88 | 5.84 | 20.9 | 5.34 | 7.46 | 22.2 | 0.42 | 3.66 | -0.32 | -4.67 | -23.5 | 4.12 | -0.85 | -0.31 | -0.2 | -0.96 | -0.96 | 15.2 | -3.91 | -3.37 | inhibition of growth at 10 µM (M14): 1.96%; inhibition of growth at 10 µM (MDA-MB-435): -5.37%; inhibition of growth at 10 µM (SK-MEL-28): -12.8%; inhibition of growth at 10 µM (SK-MEL-5): 3.66%; inhibition of growth at 10 µM (UACC-257): -7.95%; inhibition of growth at 10 µM (UACC-62): 8.42%; inhibition of growth at 10 µM (IGROV-1): 20.8%; inhibition of growth at 10 µM (OVCAR-5): -1.01%; inhibition of growth at 10 µM (OVCAR-8): -2.63%; inhibition of growth at 10 µM (SK-OV-3): 19.7%; inhibition of growth at 10 µM (786-0): -1.2%; inhibition of growth at 10 µM (CAKI-1): 17.7%; inhibition of growth at 10 µM (RXF 393): -18.1%; inhibition of growth at 10 µM (TK-10): -23.4%; inhibition of growth at 10 µM (DU-145): -8.69%; inhibition of growth at 10 µM (MDA-MB-231): 6.83%; inhibition of growth at 10 µM (Hs-578T): -5.56%; inhibition of growth at 10 µM (T47D): 13%
N=C1Nc2c(sc3ccc(Cl)cc23)C(c2ccccc2O)N1 (configuration not stated) | -8.53 | 0.44 | 10.2 | -4.84 | 17.6 | 9.32 | 21.2 | 12.7 | 0.95 | -6.79 | -22.2 | 10.7 | -5.8 | -3.63 | 1.38 | -6.6 | -6.63 | 22.4 | -7.81 | -0.7 | inhibition of growth at 10 µM (M14): 1.39%; inhibition of growth at 10 µM (MDA-MB-435): 2%; inhibition of growth at 10 µM (SK-MEL-28): -16.7%; inhibition of growth at 10 µM (SK-MEL-5): 2.66%; inhibition of growth at 10 µM (UACC-257): -10.3%; inhibition of growth at 10 µM (UACC-62): 8.57%; inhibition of growth at 10 µM (IGROV-1): 17.4%; inhibition of growth at 10 µM (OVCAR-5): -1.61%; inhibition of growth at 10 µM (OVCAR-8): -6.18%; inhibition of growth at 10 µM (SK-OV-3): 9.9%; inhibition of growth at 10 µM (786-0): -0.24%; inhibition of growth at 10 µM (CAKI-1): -15.6%; inhibition of growth at 10 µM (RXF 393): 3.66%; inhibition of growth at 10 µM (TK-10): 38%; inhibition of growth at 10 µM (DU-145): 23.3%; inhibition of growth at 10 µM (MDA-MB-231): -5.69%; inhibition of growth at 10 µM (Hs-578T): -10.5%; inhibition of growth at 10 µM (T47D): -13.9%
N=C1Nc2c(sc3ccc(Cl)cc23)C(c2cccc([N+](=O)[O-])c2)N1 (configuration not stated) | 5.44 | 21.2 | -3.11 | 20.4 | 15.1 | -6.16 | 19.2 | 14.4 | 14.7 | -31 | 9.09 | 2.65 | -4.21 | 6.62 | 3.17 | -5.78 | 1.35 | -4.54 | 0.68 | -9.93 | inhibition of growth at 10 µM (M14): -5.05%; inhibition of growth at 10 µM (MDA-MB-435): -4.98%; inhibition of growth at 10 µM (SK-MEL-28): 4.08%; inhibition of growth at 10 µM (SK-MEL-5): -2.55%; inhibition of growth at 10 µM (UACC-257): 9.45%; inhibition of growth at 10 µM (UACC-62): 23.1%; inhibition of growth at 10 µM (IGROV-1): 4.94%; inhibition of growth at 10 µM (OVCAR-5): -1.04%; inhibition of growth at 10 µM (OVCAR-8): 9.4%; inhibition of growth at 10 µM (SK-OV-3): -1.73%; inhibition of growth at 10 µM (786-0): 16.5%; inhibition of growth at 10 µM (CAKI-1): -10.8%; inhibition of growth at 10 µM (RXF 393): 4.42%; inhibition of growth at 10 µM (TK-10): 40.3%; inhibition of growth at 10 µM (DU-145): 20.5%; inhibition of growth at 10 µM (MDA-MB-231): -0.16%; inhibition of growth at 10 µM (Hs-578T): -17.4%; inhibition of growth at 10 µM (T47D): 1.02%
O=[N+]([O-])c1cccc(C2c3sc4ccc(Cl)cc4c3N=C3NN=C(c4cccc(F)c4)N32)c1 (configuration not stated) | 2.97 | 13 | 1.04 | 2.2 | 14.8 | 14.2 | -18 | 14 | 13.4 | -6.34 | -6.34 | 2.49 | 0.97 | 2.47 | -3.74 | 2.31 | 4.75 | 6.3 | -1.33 | 0.5 | inhibition of growth at 10 µM (M14): -2.52%; inhibition of growth at 10 µM (MDA-MB-435): -11.2%; inhibition of growth at 10 µM (SK-MEL-28): -15.4%; inhibition of growth at 10 µM (SK-MEL-5): 4.01%; inhibition of growth at 10 µM (UACC-257): -6.09%; inhibition of growth at 10 µM (UACC-62): 4.06%; inhibition of growth at 10 µM (IGROV-1): 21.3%; inhibition of growth at 10 µM (OVCAR-5): -2.63%; inhibition of growth at 10 µM (OVCAR-8): -1.43%; inhibition of growth at 10 µM (SK-OV-3): 6.58%; inhibition of growth at 10 µM (786-0): -1.01%; inhibition of growth at 10 µM (CAKI-1): 21.9%; inhibition of growth at 10 µM (RXF 393): -16.7%; inhibition of growth at 10 µM (TK-10): -12.9%; inhibition of growth at 10 µM (DU-145): 11.3%; inhibition of growth at 10 µM (MDA-MB-231): 13.4%; inhibition of growth at 10 µM (Hs-578T): 1.64%; inhibition of growth at 10 µM (T47D): 18.1%
